From patent US20100015225A1, “SOLID DISPERSION OF A NEUROKININ ANTAGONIST” (priority 2006, published 2010) come the findings set out here.

The data set is described as follows: Super-saturation studies: in-vitro dissolution in different media (SGF, FaSSIF, FeSSIF, buffer pH 7). The class given is physicochemical. As to conditions: ~4 mg/ml = 100% release. An excerpt: The in-vitro dissolution of the HPMC-based solid dispersion 1B (Component 1B) and that of the enteric HPMC-P based solid dispersion 2D (Component 2D) were studied in different media and compared to the crystalline-hemihydrate or the amorphous compound A.

Consider `CN(C(=O)c1cc(C(F)(F)F)cc(C(F)(F)F)c1)[C@@H](/C=C/C(=O)N[C@@H]1CCCCNC1=O)Cc1ccc(Cl)c(Cl)c1` [Compd A crystalline (hemihydrate), (4R)-4-[N′-methyl-N′-(3,5-bistrifluoro-methyl-benzoyl)-amino]-4-(3,4-dichlorobenzyl)-but-2-enoic acid N—[(R)-epsilon-caprolactam-3-yl]-amide semihydrate], for which the “Concentration of Compound A” value turned out to be 0 µg/mL (FaSSIF, 10 min); 0 µg/mL (FaSSIF, 30 min); 0 µg/mL (FaSSIF, 60 min); 0 µg/mL (FaSSIF, 180 min); 62 µg/mL (FeSSIF, 10 min); 54 µg/mL (FeSSIF, 30 min). Besides, the “Concentration of Compound A” value is, setting by setting: (FeSSIF, 60 min) 56 µg/mL; (FeSSIF, 180 min) 44 µg/mL; (SGF, 10 min) 0 µg/mL; (SGF, 30 min) 0 µg/mL; (SGF, 60 min) 0 µg/mL; (SGF, 180 min) 0 µg/mL.
For the compound `CN(C(=O)c1cc(C(F)(F)F)cc(C(F)(F)F)c1)[C@@H](/C=C/C(=O)N[C@@H]1CCCCNC1=O)Cc1ccc(Cl)c(Cl)c1` [A-amorphous, (4R)-4-[N′-methyl-N′-(3,5-bistrifluoromethyl-benzoyl)-amino]-4-(3,4-dichlorobenzyl)-but-2-enoic acid N—[(R)-epsilon-caprolactam-3-yl]-amide], the “Concentration of Compound A” value was found to be 102 µg/mL (FaSSIF, 10 min); 63 µg/mL (FaSSIF, 30 min); 9 µg/mL (FaSSIF, 60 min); 0 µg/mL (FaSSIF, 180 min); 531 µg/mL (FeSSIF, 10 min); 575 µg/mL (FeSSIF, 30 min). Also, the “Concentration of Compound A” value (FeSSIF, 60 min) was determined as 48 µg/mL; the “Concentration of Compound A” value (FeSSIF, 180 min) came to 49 µg/mL; the “Concentration of Compound A” value (SGF, 10 min) was 491 µg/mL; the “Concentration of Compound A” value (SGF, 30 min) was 0 µg/mL; the “Concentration of Compound A” value (SGF, 60 min) came out at 0 µg/mL; the “Concentration of Compound A” value (SGF, 180 min) turned out to be 0 µg/mL.
